Test results from US4730068A, “Tumor retarding (1,2-diphenyl-ethylenediamine)-platinum(II)-complexes” (Asta-Werke Aktiengesellschaft, priority 1985, dated 1988).

Key:
[1] = test system: DMBA-induced hormone dependent rat mammary carcinoma; test: DMBA-induced hormone dependent mammary carcinoma of the rat; type: in vivo; conditions: 3×6.5 mg/kg body weight/week
Protocol: Mouse leukemia P388, hormone independent human breast cancer cell line MDA-MB 231, hormone dependent human breast cancer cell line MCF7, hormone dependent mouse mammary carcinoma MXT, DMBA induced hormone dependent rat mammary carcinoma (DMBA is dimethylbenz[a]-anthracene).
For example on the mammary cancer of the rat, which was induced by 7, 12-dimethylbenz [a]-anthracene (DMBA), with the compound of Example 18 at a dosage of 3×6.5 mg/kg body weight/week there was determined with 88% of the tumors a complete remission. In the testing on the hormone independent human mammary tumor cell line MDA-MB 231 the compounds of the invention show for example in vitro in concentrations between 10^-5 and 10^-7 moles/liter a 50% inhibition of the growth of this cell line. The inhibition of [^3 H]-thymidine incorporation is of the same order of magnitude. The compounds of the invention act on the lymphocytic leukemia P388 (mouse) for example in dosages between 10 and 50 mg/kg (intraperitoneal application).

water solubility = type: physicochemical

Compound	tumors with complete remission [1]	solubility in water (water solubility)
NC(c1c(Cl)cc(O)cc1Cl)C(N)c1c(Cl)cc(O)cc1Cl.[Cl-].[Cl-].[Pt+2] (stereo not drawn) [Example 18, meso-1,2-bis(2,6-dichloro-4-hydroxyphenyl)-ethylenediamine-dichloro-platinum(II)]	88%	
Diaquo-meso-1,2-bis(2,6-dichloro-4-hydroxyphenyl)-ethylene-diamine-platinum(II)-sulfate [Example 34]		soluble in water
